Experimental data as given in patent US7653490B2, “Nuclear magnetic resonance assembly of chemical entities” (Triad Liquidating Company LLC, priority 2001, dated 2010).
Blank lines part the entries; values can stand above or below the molecule they belong to.

Assays:
p38α [1] = molecular target: T1, p38α (Homo sapiens, UniProt Q16539); assay: WaterLOGSY competition experiments (displacement of PBBA); type: binding
Excerpt: A peptide having the sequence […] (SEQ ID NO:1) is a known phosphorylation substrate for p38α as described, for example, in Chen et al. Biochemistry 39:2079-2087 (2000). […] This site is shown in the lower panel of FIG. 7, and is referred to as the SL (specificity ligand) site, since extending a bi-ligand library into this site off of an ATP mimic might provide additional specificity.

p38α MAP kinase = p38α MAP kinase (Homo sapiens, UniProt Q16539); assay: Phosphorylation of myelin basic protein (MBP) by p38α; type: biochemical
p38α MAP kinase, sequence (Q16539 whole entry, the tested form may be a part): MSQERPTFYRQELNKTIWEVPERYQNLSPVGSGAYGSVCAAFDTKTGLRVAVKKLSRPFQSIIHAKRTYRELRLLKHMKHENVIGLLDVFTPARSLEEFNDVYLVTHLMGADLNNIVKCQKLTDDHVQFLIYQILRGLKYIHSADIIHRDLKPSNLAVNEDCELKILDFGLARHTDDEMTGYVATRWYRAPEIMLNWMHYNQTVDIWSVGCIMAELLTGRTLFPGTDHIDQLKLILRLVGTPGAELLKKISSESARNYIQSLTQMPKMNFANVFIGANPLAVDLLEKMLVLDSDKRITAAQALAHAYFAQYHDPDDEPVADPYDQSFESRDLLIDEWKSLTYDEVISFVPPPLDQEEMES
Experimental: The TTM2001.101.A09 bi-ligand compound and the fragments from which it was constructed were tested as inhibitors of p38α enzymatic activity in an assay measuring phosphorylation of myelin basic protein (MBP) by p38α.

p38α [2] = molecular target: T1, p38α; assay: 1D 1H NMR line broadening; type: binding; settings: 50 micromolar compound, 10 μM p38α
Experimental: The ability of TTM2001.101.A09 to bind to p38α was determined by comparing the degree of line broadening in 1D ^1H NMR spectra for the compound in the presence of p38α compared to in the absence of p38α.

[3] = molecular target: unactivated p38α MAP kinase (Homo sapiens, UniProt Q16539); assay: WaterLOGSY NMR binding screen; settings: 10 to 30 micromolar p38α, 0.1 to 1.0 millimolar compound, 4° C.
unactivated p38α MAP kinase, sequence (Q16539 whole entry): as the sequence (Q16539 whole entry, the tested form may be a part) above
Excerpt: A library of 29 PBBA structure analogs was screened against unlabeled p38α MAP kinase (p38α) as follows. Samples containing 10 to 30 micromolar concentration of unactivated p38α MAP kinase and 0.1 to 1.0 millimolar concentration of one of the PBBA structure analogs were obtained. The samples were screened using WaterLOGSY with saturations times of 2 s (frequency selective excitation via a train of 232 6 ms π pulses with a GAUSS profile at an 80 Hz RF field strength) with solvent suspension using WATERGATE at 4° C. WaterLOGSY is further described in Dalvit et al. J. Biomol. NMR 21:349-59 (2001) Dalvit et al. J. Magn. Res. B112:282-288 (1996) and Dalvit et al., J. Biomol. NMR 11:437-444 (1998).
A number of PBBA related compounds were screened with WaterLOGSY to identify those that bound to p38α. Of the compounds shown in FIG. 6, two were identified by cross-saturation experiments (with 10 μM unactivated p38α, 1.5 s to 3.0 s saturation with a train of IBURP pulses) to interact with TTM2001.082.A10 as indicated by the arrows.

p38α [4] = molecular target: T1, p38α; assay: Fluorescence polarization displacement of fluorescently tagged staurosporine; type: binding
[5] = molecular target: activated p38α protein kinase (Homo sapiens, UniProt Q16539); assay: 1D saturation transfer difference with selective saturation of antenna methyl of TTM2002.143.A27; type: binding; settings: 2 s saturation at 3.0 ppm, 4° C.
activated p38α protein kinase, sequence (Q16539 whole entry): as the sequence (Q16539 whole entry, the tested form may be a part) above
Excerpt: The 25 compounds from the MOTIF library described in Example IV were screened for proximal binding near the ligand-probe as follows. Samples were obtained containing 100 to 1000 micromolar concentrations of the TTM2002.143.A27 ligand-probe, 10 to 50 micromolar concentrations of activated p38α protein kinase, and one of the 25 compounds at a concentration of 100 to 1000 micromolar. Samples were screened for the presence of second ligands binding proximal to the common ligand-probe by (^1H) 1 dimensional saturation transfer difference experiments using saturations times of 2 s (frequency selective excitation via a train of 232 6 ms τ pulses with a GAUSS profile at an 80 Hz RF field strength) with solvent suspension using WATERGATE at 4° C.

T1 sequence (Q16539 whole entry): as the sequence (Q16539 whole entry, the tested form may be a part) above

ability to displace PBBA from p38α, WaterLOGSY competition (p38α [1]): could not displace PBBA from p38α
Molecule: SEQ ID NO:1: peptide IPTTPITTTYFFFKKK, known phosphorylation substrate for p38α

Kd (p38α MAP kinase; IC50 corrected for high ATP concentration, read-out: Kd for binding between p38α and compound): ~300 nM
IC50 (p38α MAP kinase; read-out: IC50, inhibition of myelin basic protein phosphorylation by p38α): 1700 nM
fold tighter than either of the starting fragments (p38α MAP kinase; versus starting fragments PBBA and TTM2001.082.B09): greater than 100 fold
line broadening in 1D 1H NMR spectrum in presence of p38α (p38α [2]): significant line-broadening
Molecule: O=C(O)c1ccc(CCCCCCSCc2cc(-n3cnc4cc(C(=O)O)ccc43)ccc2F)cc1 [TTM2001.101.A09]

Molecule: CCCCc1ccc(C(=O)O)cc1 [PBBA, p-butyl benzoic acid]
binding to p38α by WaterLOGSY cross-saturation [3]: showed cross-saturation effects with p38α indicating binding to the protein
ability to displace fluorescently tagged staurosporine (p38α [4]): not able to displace a fluorescently tagged staurosporine
inhibition of phosphorylation of MBP protein by p38α (in words) (p38α MAP kinase): inhibit phosphorylation of MBP protein by p38α

Molecule: CCCCCc1ccc(N)cc1 [PPA, p-pentyl-aniline]
intensity change of aromatic protons on selective saturation of antenna methyl protons [5]: showed a reduction in the intensity on selective saturation of the methyl protons
